Assay: xn = mol fraction of the nth substance listed, in the solute-free solvent

Cl.c1ccc2c(CC3=NCCN3)cccc2c1 + CO + CC(C)O
solubility (g/100 g solution)
Conditions | 278.15 K | 283.15 K | 288.15 K | 293.15 K | 298.15 K | 303.15 K | 308.15 K | 313.15 K | 318.15 K | 323.15 K
x2 = 0.1724 | 0.41 | 0.484 | 0.577 | 0.695 | 0.819 | 1.01 | 1.16 | 1.42 | 1.62 | 1.85
x2 = 0.3192 | 0.793 | 0.94 | 1.05 | 1.29 | 1.46 | 1.74 | 2.05 | 2.38 | 2.74 | 3.14
x2 = 0.4456 | 1.3 | 1.58 | 1.8 | 2.14 | 2.45 | 2.88 | 3.31 | 3.94 | 4.53 | 5.08
x2 = 0.5556 | 1.91 | 2.41 | 2.82 | 3.29 | 3.8 | 4.3 | 5.07 | 6.02 | 6.76 | 7.78
x2 = 0.6522 | 2.34 | 2.72 | 3.12 | 3.71 | 4.22 | 4.92 | 5.63 | 6.51 | 7.33 | 8.47
x2 = 0.7377 | 2.88 | 3.52 | 4.25 | 5.06 | 5.99 | 6.93 | 7.8 | 8.95 | 10.2 | 11.5
x2 = 0.814 | 3.62 | 4.51 | 5.34 | 6.58 | 7.66 | 8.91 | 10.4 | 11.8 | 13.3 | 14.9
x2 = 0.8823 | 4.46 | 5.61 | 6.67 | 8.06 | 9.39 | 11 | 12.7 | 14.7 | 16.4 | 18.4
x2 = 0.944 | 5.43 | 6.55 | 7.62 | 9.25 | 10.7 | 12.9 | 15 | 17.3 | 19.4 | 21.8

Cl.c1ccc2c(CC3=NCCN3)cccc2c1 + CO + CCO
solubility (g/100 g solution)
Conditions | 278.15 K | 283.15 K | 288.15 K | 293.15 K | 298.15 K | 303.15 K | 308.15 K | 313.15 K | 318.15 K | 323.15 K
x2 = 0.1377 | 2.14 | 2.61 | 3.11 | 3.69 | 4.45 | 5.14 | 5.88 | 6.74 | 7.61 | 8.5
x2 = 0.2644 | 3.05 | 3.54 | 3.96 | 4.7 | 5.27 | 6.18 | 7.06 | 8.2 | 9.28 | 10.6
x2 = 0.3812 | 3.8 | 4.39 | 5.05 | 5.74 | 6.63 | 7.58 | 8.73 | 9.78 | 11.4 | 12.7
x2 = 0.4894 | 4.21 | 4.86 | 5.45 | 6.36 | 7.17 | 8 | 9.31 | 10.4 | 11.9 | 13.2
x2 = 0.5898 | 4.47 | 5.59 | 6.2 | 7.21 | 8.02 | 9.29 | 10.6 | 11.7 | 13.2 | 14.6
x2 = 0.6832 | 4.86 | 5.8 | 6.77 | 7.78 | 8.82 | 10 | 11.3 | 12.8 | 14.4 | 16.1
x2 = 0.7704 | 5.03 | 6.14 | 7.26 | 8.67 | 10.3 | 11.5 | 13.1 | 14.6 | 16.2 | 18.3
x2 = 0.8519 | 5.48 | 6.63 | 7.79 | 9.34 | 11 | 13.3 | 14.8 | 16.8 | 18.5 | 20.5
x2 = 0.9283 | 5.66 | 6.83 | 8.15 | 9.82 | 11.7 | 14 | 15.7 | 18 | 19.9 | 21.9

Cl.c1ccc2c(CC3=NCCN3)cccc2c1 + CO + CCOC(C)=O
solubility (g/100 g solution)
Conditions | 278.15 K | 283.15 K | 288.15 K | 293.15 K | 298.15 K | 303.15 K | 308.15 K | 313.15 K | 318.15 K | 323.15 K
x2 = 0.234 | 0.0388 | 0.0424 | 0.0488 | 0.0564 | 0.0653 | 0.0746 | 0.0856 | 0.0943 | 0.107 | 0.124
x2 = 0.4074 | 0.414 | 0.448 | 0.483 | 0.536 | 0.585 | 0.641 | 0.701 | 0.757 | 0.832 | 0.9
x2 = 0.5409 | 1.28 | 1.46 | 1.64 | 1.85 | 2.05 | 2.3 | 2.54 | 2.8 | 3.09 | 3.43
x2 = 0.647 | 2.35 | 2.79 | 3.18 | 3.62 | 4.14 | 4.79 | 5.44 | 6 | 6.94 | 7.75
x2 = 0.7342 | 2.92 | 3.55 | 4.1 | 4.91 | 5.54 | 6.21 | 7.05 | 7.84 | 8.87 | 9.75
x2 = 0.8048 | 4.02 | 4.75 | 5.56 | 6.6 | 7.64 | 8.62 | 10.1 | 11.2 | 12.5 | 14
x2 = 0.8651 | 4.96 | 5.72 | 6.88 | 8.2 | 9.51 | 11.3 | 12.9 | 14.3 | 15.7 | 17.4
x2 = 0.9166 | 5.87 | 6.98 | 8.13 | 9.66 | 11.2 | 13.1 | 15 | 17.1 | 19 | 20.8
x2 = 0.9612 | 6.37 | 7.47 | 8.84 | 10.6 | 12.3 | 14.4 | 16.6 | 18.9 | 21.1 | 23.5

O=CC(O)C(O)C(O)CO (centres undefined) + CO + ClCCl
solubility (g/100 g solution)
Conditions | x2 = 0.1 | x2 = 0.2 | x2 = 0.3 | x2 = 0.4 | x2 = 0.5 | x2 = 0.6 | x2 = 0.7 | x2 = 0.8 | x2 = 0.9
283.15 K | 0.097 | 0.564 | 1.19 | 1.64 | 2.52 | 3.8 | 4.89 | 6.81 | 9.89
288.15 K | 0.17 | 0.673 | 1.33 | 1.81 | 2.86 | 4.63 | 5.87 | 8.86 | 12.6
293.15 K | 0.204 | 0.696 | 1.5 | 2.4 | 3.52 | 5.59 | 7.17 | 10.8 | 15.8
298.15 K | 0.281 | 0.774 | 1.78 | 2.73 | 4.3 | 6.87 | 9.1 | 13.4 | 20.1
303.15 K | 0.286 | 0.82 | 2.17 | 3.22 | 5.29 | 9.18 | 12.7 | 18.3 | 25.3

CCc1cccc2c3c([nH]c12)C(CC)(CC(=O)O)OCC3 (centres undefined) + COC(C)=O + CCCCCC
solubility (g/100 g solution)
Conditions | 278.15 K | 283.15 K | 288.15 K | 293.15 K | 298.15 K | 303.15 K | 308.15 K | 313.15 K | 318.15 K | 323.15 K
x2 = 0.2255 | 1.11 | 1.18 | 1.26 | 1.35 | 1.42 | 1.5 | 1.61 | 1.69 | 1.76 | 1.86
x2 = 0.4369 | 3.55 | 3.98 | 4.43 | 4.96 | 5.39 | 5.87 | 6.35 | 6.88 | 7.34 | 7.96
x2 = 0.6357 | 4.26 | 5.33 | 6.41 | 7.66 | 8.86 | 9.93 | 11.4 | 12.9 | 14.1 | 15.7
x2 = 0.8229 | 10.8 | 12.1 | 13.6 | 15.1 | 16.7 | 18.3 | 20.2 | 22.4 | 24.4 | 26

Cl.c1ccc2c(CC3=NCCN3)cccc2c1 + COCCO + CC(C)O
solubility (g/100 g solution)
Conditions | 278.15 K | 283.15 K | 288.15 K | 293.15 K | 298.15 K | 303.15 K | 308.15 K | 313.15 K | 318.15 K | 323.15 K
x2 = 0.08067 | 0.345 | 0.391 | 0.44 | 0.493 | 0.56 | 0.628 | 0.702 | 0.778 | 0.867 | 0.926
x2 = 0.1649 | 0.526 | 0.602 | 0.687 | 0.775 | 0.873 | 0.969 | 1.09 | 1.19 | 1.32 | 1.42
x2 = 0.2529 | 0.638 | 0.792 | 0.944 | 1.03 | 1.25 | 1.45 | 1.56 | 1.82 | 1.98 | 2.32
x2 = 0.3449 | 0.753 | 0.926 | 1.09 | 1.32 | 1.53 | 1.8 | 2.05 | 2.36 | 2.58 | 2.87
x2 = 0.4412 | 1.03 | 1.18 | 1.29 | 1.51 | 1.68 | 1.89 | 2.09 | 2.36 | 2.6 | 2.87
x2 = 0.5422 | 1.45 | 1.58 | 1.73 | 1.92 | 2.17 | 2.43 | 2.69 | 2.97 | 3.24 | 3.61
x2 = 0.6482 | 1.84 | 2.01 | 2.28 | 2.46 | 2.77 | 2.98 | 3.37 | 3.59 | 3.82 | 4.19
x2 = 0.7595 | 2.35 | 2.52 | 2.78 | 3.06 | 3.34 | 3.67 | 4.04 | 4.45 | 4.93 | 5.36
x2 = 0.8767 | 2.49 | 2.71 | 3.03 | 3.29 | 3.7 | 3.95 | 4.34 | 4.64 | 4.96 | 5.33

Cl.NC(C=O)C(O)C(O)C(O)CO (centres undefined) + O + CCO
solubility (g/100 g solution)
Conditions | 283.15 K | 288.15 K | 293.15 K | 298.15 K | 303.15 K | 308.15 K | 313.15 K | 318.15 K | 323.15 K
x2 = 0.4 | 0.614 | 0.658 | 0.736 | 0.832 | 0.899 | 0.944 | 1.08 | 1.18 | 1.27
x2 = 0.5 | 1.17 | 1.37 | 1.55 | 1.68 | 1.79 | 2.1 | 2.32 | 2.52 | 2.83
x2 = 0.6 | 2.21 | 2.56 | 2.9 | 3.34 | 3.6 | 3.91 | 4.59 | 4.86 | 5.43
x2 = 0.7 | 3.86 | 4.61 | 5.18 | 5.66 | 6.46 | 7.67 | 8.39 | 9.2 | 10.5
x2 = 0.8 | 6.88 | 7.72 | 8.59 | 9.69 | 10.7 | 11.8 | 13.1 | 14.6 | 16.1
x2 = 0.9 | 12.3 | 13.1 | 14.5 | 16.1 | 17.4 | 19 | 20.6 | 22.3 | 23.9

Cl.NC(C=O)C(O)C(O)C(O)CO (centres undefined) + O + CO
solubility (g/100 g solution)
Conditions | 283.15 K | 288.15 K | 293.15 K | 298.15 K | 303.15 K | 308.15 K | 313.15 K | 318.15 K | 323.15 K
x2 = 0.2 | 0.992 | 1.03 | 1.13 | 1.23 | 1.35 | 1.48 | 1.55 | 1.7 | 1.83
x2 = 0.4 | 2.16 | 2.53 | 2.73 | 2.95 | 3.19 | 3.51 | 3.82 | 4.32 | 4.72
x2 = 0.6 | 4.73 | 5.53 | 6 | 6.76 | 7.4 | 8.23 | 9.01 | 10 | 10.9
x2 = 0.8 | 10.2 | 11.5 | 12.8 | 13.9 | 15.2 | 16.7 | 18.1 | 19.7 | 21.3
x2 = 0.9 | 15.2 | 16.6 | 18 | 19.7 | 21 | 22.9 | 24.2 | 25.8 | 27.9
